Common to all, as to assay: growth of human tumour cells (NCI), 48 h
The test system of test [1] is EKVX NSCLC.
Test [2] concerns HCC-2998 colon.
For test [3], the system named is HT29 colon.
The test system of test [4] is KM12 colon.
The test system of test [5] is NCI-H522 lung.
Test [6] concerns OVCAR-8 ovarian.
In test [7] the test system is SF-539 CNS.
The test system of test [8] is SK-MEL-28 melanoma.
The subject of test [9] is SK-MEL-5 melanoma.
Test [10] concerns SK-OV-3 ovarian.
Test [11] has as its system SNB-19 CNS.
The subject of test [12] is SW-620 colon.
Test [13] deals with U251 CNS.
Test [14] concerns UACC-257 melanoma.
Test [15] relates to UACC-62 melanoma.
Test [16] concerns CCRF-CEM leukemia.

Structures are written as SMILES.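 Protocol summary: plate cells (96-well), add compound at 5 concentrations, incubate 48 h, interpolate endpoints linearly. TGI marks complete inhibition of growth.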 Some results are limits rather than exact numbers.

Take `CN(C)C(=O)OC(Cn1cncn1)c1ccc(Cl)cc1Cl` (stereo not given): the TGI in test [1], in test [2], in test [3], in test [4], in test [5] and in [6] was > 100 µM throughout. Further, the TGI in [7], in test [8], in [9], in test [10], in test [11] and in test [12] was > 100 µM throughout. For the same molecule, the TGI in [13], in test [14] and in test [15] was > 100 µM in each case.

Consider `CCc1ccccc1NC(=O)C(=O)CC(=O)c1sc(Nc2ccccc2)nc1C`, for which the TGI in test [16], in test [1], in test [2], in test [3], in test [4] and in [5] was > 100 µM throughout. For the same molecule, the TGI in test [6], in [7], in test [8], in test [9], in [10] and in test [11] was > 100 µM each time. Also, the TGI in [12], in test [13], in [14] and in test [15] was > 100 µM throughout.

On to `O=C(COc1ccc2c(=O)cc(-c3ccccc3)oc2c1)N1CCN(c2ccccc2)CC1`, for which the TGI in [16] is > 100 µM; in test [1] it was > 100 µM; in [2], > 100 µM; in test [4], > 100 µM; in test [5], 93.8 µM; in [6], > 100 µM. In addition, the TGI in test [7], in test [8], in [9], in test [10], in test [11] and in [12] was > 100 µM in each case. Also, the TGI in [13], in test [14] and in [15] was > 100 µM in each case.

Consider `CSc1ccc(C2OC(=O)c3ccccc32)c2ccccc12` (stereo not given), for which the TGI in test [16], in test [1], in [2], in [3], in [4] and in test [5] was > 100 µM throughout. For the same molecule, the TGI in test [6], in test [7], in [8], in [9], in [10] and in test [11] was > 100 µM each time. The TGI in test [12], in [13], in [14] and in test [15] was > 100 µM each time.

Turning to `O=C1[C@H]2ON(c3ccccc3)C(c3ccccc3Cl)[C@H]2C(=O)N1c1ccc(Cc2ccc(N3C(=O)[C@@H]4ON(c5ccccc5)C(c5ccccc5Cl)[C@@H]4C3=O)cc2)cc1` (stereo not given in full), the TGI in test [16], in test [1], in [2], in test [3], in [4] and in [5] was > 100 µM each time. Further, the TGI in [6], in [7], in test [8], in [9], in [10] and in test [11] was > 100 µM in each case. Besides, the TGI in [12], in [13], in [14] and in [15] was > 100 µM in each case.

In the case of `CC(C)[C@H]1CO[C@]2(C)[C@@H]3CN(Cc4ccccc4)C[C@@H]3C(=O)N12`, the TGI in [16], in test [1], in test [3], in test [4], in [5] and in [6] was > 100 µM throughout. Besides, the TGI in [7], in [8], in [9], in test [10], in [11] and in [12] was > 100 µM throughout. Moreover, the TGI in [13], in test [14] and in test [15] was > 100 µM throughout.

Turning to `COc1ccc(C2=Nc3ccccc3NC(=O)C2)cc1`, the TGI in [16], in test [1], in [2], in test [3], in [4] and in test [5] was > 100 µM in each case. Moreover, the TGI is > 100 µM in test [6]; 65.6 µM in test [7]; > 100 µM in [8]; > 100 µM in [9]; 38.2 µM in [10]; > 100 µM in test [11]. Also, the TGI in test [12] is 45 µM; in test [13] it was 82.3 µM; in test [14], > 100 µM; in test [15], > 100 µM.

For the molecule `Cc1csc(=S)n1OC(=O)NC1CCCCC1`, the TGI in [16] was > 28.2 µM; in [1] it was > 100 µM; in test [2], > 100 µM; in test [3], > 95.5 µM; in test [4], > 100 µM; in [5], > 80.9 µM. Moreover, the TGI in [6] is > 100 µM; in test [7] it was > 100 µM; in [8], > 69.7 µM; in [9] it was > 100 µM; in [10], > 100 µM; in test [11], > 100 µM. The TGI in test [12] is > 100 µM; in [13] it was > 100 µM; in [14], > 100 µM; in [15] it was > 67.2 µM.

For `Nn1c(NNC(=O)C(=O)Nc2cc(Cl)c(Cl)cc2Cl)n[nH]c1=S`, the TGI in test [16], in test [1], in test [2], in test [3], in test [4] and in test [5] was > 100 µM each time. The TGI in [6], in [7], in test [8], in test [9], in test [10] and in test [11] was > 100 µM in each case. For the same molecule, the TGI in test [12], in test [13], in test [14] and in [15] was > 100 µM in each case.

As to `NC1C[C@H](n2cc(/C=C/Br)c(=O)[nH]c2=O)C[C@@H]1CO` (stereo not given in full), the TGI in test [16], in test [1], in test [2], in test [3], in test [5] and in test [6] was > 100 µM in each case. Moreover, the TGI in [7], in test [8], in test [10], in test [11], in test [13] and in test [14] was > 100 µM each time. The TGI in [15] was > 100 µM.

`Cc1c(/C=N/NC(=O)c2cc(Br)cc(Br)c2O)c(=O)n(-c2ccccc2)n1C`: the TGI in test [16], in [1], in test [2], in test [3], in test [4] and in test [5] was > 100 µM each time. Moreover, the TGI in test [6] is > 100 µM; in test [7], > 100 µM; in test [8], 49.8 µM; in [9], > 100 µM; in test [10], > 100 µM; in test [11] it was > 100 µM. Besides, the TGI was > 100 µM in test [12], > 100 µM in test [13], > 100 µM in test [14] and 41.7 µM in [15].

`COc1cc(OC)c2c(c1)C(=O)C(CC(C)O)=CC2=O` (stereo not given): the TGI was 33.5 µM in test [16]; 26.2 µM in test [1]; 43.7 µM in test [2]; 36.8 µM in [3]; 35 µM in [4]; 30.9 µM in test [5]. Moreover, the TGI in [6] came to 29.5 µM; in test [7], 32.5 µM; in test [8], 31.5 µM; in test [9], 28 µM; in test [10], 31.9 µM; in test [11] it was 31.6 µM. For the same molecule, the TGI in test [12] stood at 31.7 µM; in [13], 31.8 µM; in test [14], 30.7 µM; in test [15], 25.8 µM.

With `CC1SC2=NC3=C(c4ccccc4C3=O)C(c3ccc(F)cc3)N2C1=O` (stereo not given), the TGI in test [16], in test [1], in test [2], in test [3], in [4] and in [5] was > 100 µM throughout. For the same molecule, the TGI in test [6], in test [7], in test [8], in [9], in [10] and in test [11] was > 100 µM throughout. The TGI in test [12], in test [13], in [14] and in test [15] was > 100 µM each time.

Consider `Cn1cnc(CCc2ccccc2)n1`, for which the TGI in test [16], in test [3], in test [4], in test [5], in test [6] and in [7] was > 100 µM throughout. In addition, the TGI in [8], in test [9], in test [10], in test [12], in test [13] and in [14] was > 100 µM each time. The TGI in [15] was > 100 µM.

For `Cc1[nH]ccc2c1[nH]c1cc(=O)ccc12`, the TGI in [16], in [1], in test [2], in [3], in test [4] and in [6] was > 100 µM each time. For the same molecule, the TGI in test [7], in test [8], in test [9], in test [10], in [11] and in test [12] was > 100 µM each time. Besides, the TGI in [13], in test [14] and in [15] was > 100 µM each time.

As to `CC(=O)OCC1OC(OC2C(CSC3OC(COC(C)=O)C(OC(C)=O)C(OC(C)=O)C3OC(C)=O)OC(OC(C)=O)C(OC(C)=O)C2OC(C)=O)C(OC(C)=O)C(OC(C)=O)C1OC(C)=O` (stereo not given), the TGI in [16], in test [1], in test [2], in test [3], in test [4] and in test [5] was > 100 µM in each case. Besides, the TGI in test [6], in test [7], in [8], in [9], in test [10] and in test [11] was > 100 µM throughout. The TGI in [12], in [13] and in test [15] was > 100 µM in each case.

For `COc1cc(Cn2c3ccccc3c3cc(C)c4c(c32)C=CC(C)(CCC=C(C)C)O4)cc2c1[nH]c1ccccc12` (stereo not given), the TGI in test [16], in test [1], in [2], in [3], in [4] and in [5] was > 100 µM each time. Also, the TGI in [6], in test [7], in [8], in test [9], in test [10] and in [11] was > 100 µM in each case. Further, the TGI in test [12], in test [13], in [14] and in [15] was > 100 µM throughout.

In the case of `CC1=C(C(=O)O)N2C(=O)[C@@H](NC(=O)C(c3ccc(O)cc3)N3CSC(=S)N(C(C)C)C3)C2SC1` (stereo not given in full), the TGI in test [16], in test [1], in test [3], in test [4], in [5] and in test [6] was > 100 µM throughout. Moreover, the TGI in test [7], in [8], in test [9], in test [10], in test [11] and in [13] was > 100 µM throughout. Further, the TGI in [14] and in [15] was > 100 µM each time.

The values are drawn from PubChem BioAssay (NCI).
